As usually defined, the IC50 is the concentration at which inhibition is half-maximal.

Data on two compounds can be found in ChEMBL document CHEMBL4673347, “Discovery of new thieno[2,3-d]pyrimidine and thiazolo[5,4-d]pyrimidine derivatives as orally active phosphoinositide 3-kinase inhibitors” (Bioorg Med Chem, 2021).

The structures appear in SMILES notation. Calls of active or inactive are those of the source. The rule behind the calls is not given here.

In one series the test system is NCI-H1437. Description: Antiproliferative activity against human NCI-H1437 cells assessed as reduction in cell viability incubated for 72 hrs measured after 4 hrs of MTT addition by MTT assay. It is filed as functional, cell-based. (In general: Tetrazolium assays rely on reduction of a dye to a coloured formazan, in cell work by metabolically active cells.)
Series [1] concerns HGC-27. Description: Antitumor activity against human HGC-27 cells xenografted in BALB/c mouse assessed as tumor growth inhibition at 20 mg/kg, po administered for 25 days and measured on day 25 relative to control. It is filed as functional. To be noted: HGC-27, po, 600 h, time 25 day, read-out: TGI. A general note: A xenograft is tissue or cells of one species grown in another, often human tumour cells in immunodeficient mice.

Series [2] in a line: Toxicity in BALB/c mouse xenografted with human HGC-27 cells assessed as body weight reduction at 40 mg/kg, po administered for 25 days and measured on day 25. To be noted: in vivo, 600 h, time 25 day. It is filed as organism-based. More on the design: scale not given: the % may be the effect or the level left.
The target of series [3] is Phosphatidylinositol 4,5-bisphosphate 3-kinase catalytic subunit gamma isoform (Homo sapiens, UniProt P48736). Description: Inhibition of recombinant human GST-tagged PI3Kgamma (468 to 1203 residues) expressed in insect expression system using PIP2 as substrate by ADP-Glo reagent based assay.
The subject of series [4] is HGC-27. Description: Antitumor activity against human HGC-27 cells xenografted in BALB/c mouse assessed as tumor growth inhibition administered orally for 25 days and measured on day 25. It is filed as functional. The following applies: time 25.0 day.
Another series relates to BGC-823. Description: Antiproliferative activity against human BGC-823 cells assessed as reduction in cell viability incubated for 72 hrs measured after 4 hrs of MTT addition by MTT assay. It is filed as functional, cell-based.
Series [5] relates to HGC-27. Description: Inhibition of PI3K signalling in human HGC-27 cells assessed as reduction in AKT S473 phosphorylation incubated for 3 hrs by Western blot analysis. The series is classed as cell-based. To be noted: dose 20-1000 nM. On the technique in general: A western blot detects proteins with antibodies after separation by electrophoresis.
The next series deals with MDA-MB-231. Description: Antiproliferative activity against human MDA-MB-231 cells assessed as reduction in cell viability incubated for 72 hrs measured after 4 hrs of MTT addition by MTT assay. The series is classed as functional, cell-based.
A further series relates to AGS. Description: Antiproliferative activity against human AGS cells assessed as reduction in cell viability incubated for 72 hrs measured after 4 hrs of MTT addition by MTT assay. The series is classed as functional, cell-based.
For series [6], the system named is HGC-27. Description: Antitumor activity against human HGC-27 cells xenografted in BALB/c mouse assessed as reduction in Ki67 expression at 20 to 40 mg/kg, po administered for 25 days and measured on day 25 by […] immunohistochemistry. It is filed as functional, organism-based. The following applies: dose 20-40 mg/kg, time 25.0 day.

The target of series [7] is Phosphatidylinositol 4,5-bisphosphate 3-kinase catalytic subunit alpha isoform (Homo sapiens, UniProt P42336). Description: Inhibition of recombinant human full length His-tagged PI3Kalpha expressed in baculovirus expression system using PIP2 as substrate by ADP-Glo reagent based assay.
In series [8] the test system is Mus musculus. Description: In vivo inhibition of PI3Kalpha in BALB/c mouse assessed as increase in plasma insulin level at 40 mg/kg, po measured after 24 hrs. The series is classed as functional, organism-based.
Series [9] has as its system Mus musculus. Description: In vivo inhibition of PI3Kalpha in BALB/c mouse assessed as increase in plasma insulin level at 40 mg/kg, po measured after 30 mins by ELISA. It is filed as functional, organism-based.

Phosphatidylinositol 4,5-bisphosphate 3-kinase catalytic subunit alpha isoform, sequence (P42336 whole entry, canonical isoform): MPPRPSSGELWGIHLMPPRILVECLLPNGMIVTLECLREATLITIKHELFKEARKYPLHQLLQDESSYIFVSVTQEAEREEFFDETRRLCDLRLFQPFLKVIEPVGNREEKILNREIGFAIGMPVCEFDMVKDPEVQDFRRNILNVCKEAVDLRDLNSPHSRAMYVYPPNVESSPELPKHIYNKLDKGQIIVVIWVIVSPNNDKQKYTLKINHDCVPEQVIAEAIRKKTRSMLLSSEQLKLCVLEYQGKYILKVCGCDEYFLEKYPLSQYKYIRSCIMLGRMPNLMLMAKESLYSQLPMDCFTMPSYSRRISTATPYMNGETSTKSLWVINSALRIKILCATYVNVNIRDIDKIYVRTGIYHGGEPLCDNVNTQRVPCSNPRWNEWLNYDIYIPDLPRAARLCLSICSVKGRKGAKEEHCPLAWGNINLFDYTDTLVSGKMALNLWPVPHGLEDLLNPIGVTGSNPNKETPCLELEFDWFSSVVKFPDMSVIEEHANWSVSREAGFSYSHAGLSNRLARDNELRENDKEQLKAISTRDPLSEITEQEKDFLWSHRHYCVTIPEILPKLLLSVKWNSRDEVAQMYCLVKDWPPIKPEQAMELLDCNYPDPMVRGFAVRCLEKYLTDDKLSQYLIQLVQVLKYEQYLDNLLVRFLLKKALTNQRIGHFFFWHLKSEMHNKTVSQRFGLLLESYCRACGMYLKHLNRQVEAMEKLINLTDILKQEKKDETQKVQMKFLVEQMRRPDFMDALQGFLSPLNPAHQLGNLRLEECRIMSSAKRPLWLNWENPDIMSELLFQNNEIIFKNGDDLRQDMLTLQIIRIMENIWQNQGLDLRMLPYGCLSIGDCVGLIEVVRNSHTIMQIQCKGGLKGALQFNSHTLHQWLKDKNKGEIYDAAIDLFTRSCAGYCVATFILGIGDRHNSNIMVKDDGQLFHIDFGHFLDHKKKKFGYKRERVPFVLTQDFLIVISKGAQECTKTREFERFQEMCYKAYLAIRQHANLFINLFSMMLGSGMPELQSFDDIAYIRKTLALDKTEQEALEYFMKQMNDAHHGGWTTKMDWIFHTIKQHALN
Phosphatidylinositol 4,5-bisphosphate 3-kinase catalytic subunit gamma isoform, sequence (P48736 whole entry, the tested form may be a part, canonical isoform): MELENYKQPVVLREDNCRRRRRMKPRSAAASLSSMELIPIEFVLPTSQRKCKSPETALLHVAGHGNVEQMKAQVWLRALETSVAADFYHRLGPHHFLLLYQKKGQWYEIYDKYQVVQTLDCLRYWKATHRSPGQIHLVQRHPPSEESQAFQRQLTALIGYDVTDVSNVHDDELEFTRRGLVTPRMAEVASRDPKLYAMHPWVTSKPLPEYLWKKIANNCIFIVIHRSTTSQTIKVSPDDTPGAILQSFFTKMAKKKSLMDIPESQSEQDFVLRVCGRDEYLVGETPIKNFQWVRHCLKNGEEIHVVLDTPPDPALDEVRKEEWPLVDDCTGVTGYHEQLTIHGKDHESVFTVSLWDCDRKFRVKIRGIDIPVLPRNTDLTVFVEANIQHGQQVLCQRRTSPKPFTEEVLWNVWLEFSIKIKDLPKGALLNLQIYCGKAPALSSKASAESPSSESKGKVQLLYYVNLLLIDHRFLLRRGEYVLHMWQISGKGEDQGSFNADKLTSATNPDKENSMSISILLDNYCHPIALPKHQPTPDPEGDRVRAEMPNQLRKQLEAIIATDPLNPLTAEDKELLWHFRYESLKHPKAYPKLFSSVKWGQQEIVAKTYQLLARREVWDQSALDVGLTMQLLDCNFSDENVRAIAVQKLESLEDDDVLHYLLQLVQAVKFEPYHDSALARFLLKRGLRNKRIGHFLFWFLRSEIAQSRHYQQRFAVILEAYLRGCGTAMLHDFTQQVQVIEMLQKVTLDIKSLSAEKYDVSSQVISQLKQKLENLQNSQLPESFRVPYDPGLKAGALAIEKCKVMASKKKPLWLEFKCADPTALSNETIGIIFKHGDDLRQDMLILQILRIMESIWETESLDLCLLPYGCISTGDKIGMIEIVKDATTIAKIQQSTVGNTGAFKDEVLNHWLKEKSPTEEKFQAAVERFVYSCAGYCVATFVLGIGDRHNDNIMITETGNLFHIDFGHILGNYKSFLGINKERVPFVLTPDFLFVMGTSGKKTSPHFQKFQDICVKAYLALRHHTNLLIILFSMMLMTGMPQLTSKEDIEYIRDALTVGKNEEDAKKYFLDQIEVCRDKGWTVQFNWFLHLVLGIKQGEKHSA

As for `COc1ncc(-c2nc3c(N4CCOCC4)ncnc3s2)cc1NS(=O)(=O)c1ccc(F)cc1F`, the IC50 in the series with NCI-H1437 was 1100 nM; in series [3], 2 nM; in the series with BGC-823, 1100 nM; in the series with MDA-MB-231 it was 860 nM; with AGS it was 720 nM; in series [7], 1.7 nM. Besides, in the series on HGC-27 [1], the inhibition in vivo at 20 mg/kg stood at 75.5%. In series [2], the Activity is 14.8%. In the series with HGC-27 [4], the TGI entry was “Dose-dependent effect”. The inhibition entry with HGC-27 [5] is “Dose-dependent effect”. The inhibition result in the series on HGC-27 [6] and in the series with Mus musculus [9] was “Active” each time. Further, the inhibition result with Mus musculus [8] was “inactive”.
On to `COc1ncc(-c2cc3c(N4CCOCC4)ncnc3s2)cc1NS(=O)(=O)c1ccc(F)cc1F`, for which the IC50 in the series with NCI-H1437 is 2900 nM; in series [3] it was 12 nM; with BGC-823, 4200 nM; in the series with MDA-MB-231 it was 8200 nM; in the series on AGS, 3900 nM; in [7], 7.2 nM. Besides, in the series on HGC-27 [5], the inhibition result was “Dose-dependent effect”. The inhibition entry with HGC-27 [6] and with Mus musculus [9] was “Active” in each case. In addition, the inhibition result in the series with Mus musculus [8] is “inactive”.
